Like-named read-outs stand apart in the source and are kept apart here.
Legend:
PC9 NSCLC cell line = settings: dasatinib, cited from earlier work
LouNH91 NSCLC cell line = settings: dasatinib, cited from earlier work
HOP62 NSCLC cell line [1] = assay: Cellular growth inhibition (CellTiter Glo viability assay); format: cell-based; settings: Homo sapiens, HOP-62, 96 h; read-out: GI50 this paper
[2] = system: MCF7 breast cancer cell line; assay: as above; format: cell-based; settings: Homo sapiens, MCF7, 96 h; read-out: GI50 this paper
[3] = system: MDA-MB-231 breast cancer cell line; assay: as above; format: cell-based; settings: Homo sapiens, MDA-MB-231, 96 h; read-out: GI50 this paper
H157 NSCLC cell line = settings: dasatinib, cited from earlier work
HCC366 NSCLC cell line = settings: dasatinib, cited from earlier work
H322 NSCLC cell line = settings: dasatinib, cited from earlier work
H2030 NSCLC cell line = settings: dasatinib, cited from earlier work
LCLC103H NSCLC cell line [4] = settings: dasatinib, cited from earlier work
H1568 NSCLC cell line = assay: Cellular growth inhibition (CellTiter Glo viability assay); format: cell-based; settings: Homo sapiens, NCI-H1568, 96 h; read-out: GI50 this paper
advanced NSCLC = settings: among thirty-four patients with advanced NSCLC; Johnson, Bekele et al., 2010; cited from earlier work
H1666 NSCLC cell line = settings: dasatinib, cited from earlier work
HCC1359 NSCLC cell line = assay: Cellular growth inhibition (CellTiter Glo viability assay); format: cell-based; settings: Homo sapiens, 96 h; read-out: GI50 this paper
H322M NSCLC cell line = settings: dasatinib, cited from earlier work
H647 NSCLC cell line = settings: dasatinib, cited from earlier work
HOP62 NSCLC cell line [5] = settings: dasatinib, cited from earlier work
HCC4006 NSCLC cell line = settings: dasatinib, cited from earlier work
LCLC103H NSCLC cell line [6] = assay: Cellular growth inhibition (CellTiter Glo viability assay); format: cell-based; settings: Homo sapiens, LCLC-103H, 96 h; read-out: GI50 this paper
MET = MET (Homo sapiens, UniProt P08581); assay: KinAffinity target profiling; format: binding; set-up: endogenous in cells; host or cells: PC9 cells (lysate); settings: PC9 cell extract, read-out: KD_free
Chain of MET (P08581 25-1390): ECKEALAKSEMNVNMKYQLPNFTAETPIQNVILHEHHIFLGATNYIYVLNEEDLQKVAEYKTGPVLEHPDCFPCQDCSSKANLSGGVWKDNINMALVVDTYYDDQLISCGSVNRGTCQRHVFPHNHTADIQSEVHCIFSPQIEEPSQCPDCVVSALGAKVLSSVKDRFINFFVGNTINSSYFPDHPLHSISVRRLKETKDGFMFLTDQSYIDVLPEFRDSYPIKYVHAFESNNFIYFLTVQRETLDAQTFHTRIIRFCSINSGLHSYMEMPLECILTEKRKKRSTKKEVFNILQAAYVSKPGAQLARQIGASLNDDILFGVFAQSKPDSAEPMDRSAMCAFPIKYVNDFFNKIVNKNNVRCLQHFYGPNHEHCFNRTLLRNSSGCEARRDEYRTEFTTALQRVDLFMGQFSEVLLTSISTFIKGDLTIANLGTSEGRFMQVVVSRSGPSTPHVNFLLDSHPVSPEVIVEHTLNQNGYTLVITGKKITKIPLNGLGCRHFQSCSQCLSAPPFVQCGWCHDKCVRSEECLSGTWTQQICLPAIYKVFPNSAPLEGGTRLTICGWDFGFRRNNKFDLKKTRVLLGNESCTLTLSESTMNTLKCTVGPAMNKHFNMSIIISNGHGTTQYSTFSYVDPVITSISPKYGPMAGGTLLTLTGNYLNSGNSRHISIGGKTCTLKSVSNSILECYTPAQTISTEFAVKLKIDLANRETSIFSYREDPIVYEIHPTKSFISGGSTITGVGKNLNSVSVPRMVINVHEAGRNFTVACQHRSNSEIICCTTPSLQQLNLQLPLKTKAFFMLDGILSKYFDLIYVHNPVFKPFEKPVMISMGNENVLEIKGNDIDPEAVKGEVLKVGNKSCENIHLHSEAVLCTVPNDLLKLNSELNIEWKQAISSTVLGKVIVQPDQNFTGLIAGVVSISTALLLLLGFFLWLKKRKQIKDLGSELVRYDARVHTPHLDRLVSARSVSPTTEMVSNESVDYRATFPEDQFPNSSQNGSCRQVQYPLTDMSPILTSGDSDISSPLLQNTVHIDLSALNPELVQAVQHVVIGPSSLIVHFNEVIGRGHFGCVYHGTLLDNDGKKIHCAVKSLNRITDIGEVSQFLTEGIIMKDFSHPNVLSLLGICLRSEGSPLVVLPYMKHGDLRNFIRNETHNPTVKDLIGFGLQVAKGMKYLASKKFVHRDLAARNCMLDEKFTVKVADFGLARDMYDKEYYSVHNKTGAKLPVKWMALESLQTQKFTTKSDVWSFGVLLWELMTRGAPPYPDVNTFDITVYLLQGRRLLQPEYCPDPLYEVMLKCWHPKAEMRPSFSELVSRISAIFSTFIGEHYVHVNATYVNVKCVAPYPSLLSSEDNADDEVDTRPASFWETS
Experimental: (§1) For in vitro association experiments 4×10^8 PC9 cells were lysed in buffer containing 20 mM HEPES pH 7.5, 400 mM NaCl. 0.25% Triton X-100, 1 mM DTT, 1.5 mM MgCl2, 0.5 mM ZnCl2, 0.5 mM EDTA, 0.5 mM EGTA, 1600 U/ml Benzonase plus additives (10 μg/ml aprotinin, 10 μg/ml leupeptin, 1 mM PMSF, 1 mM Na3VO4, 10 mM NaF). After centrifugation the supernatant was adjusted to 1 M NaCl, filtered through a 0.45 μm celluloseacetate filter and subjected to KinAffinity™ beads representing several different broad-spectrum kinase inhibitors immobilized on Sepharose beads. For each in vitro association experiment 750 μl cell extract (4 mg/ml) were incubated with 30 μl KinAffinity™ beads for 2.5 h at 4° C. […] The extracted peptides were derivatized for quantitative mass spectrometry using the TMT 6-plex reagent according to the manufactures instructions and were subsequently combined for mass spectrometric analysis.
(§2) Mass spectrometric analysis of the labeled and combined peptide fractions was carried out by on-line nanoLC-MS/MS. […] The resulting fragmentation spectra were also recorded in the linear ion trap.
(§3) Regarding the search parameters, the minimal peptide length was set to 6 amino acids, trypsin was selected as proteolytic enzyme and maximally 2 missed cleavage sites were allowed. […] The intensities of the TMT reporter ions were read from the msm files. […]

MAP2K2 = MAP2K2 (Homo sapiens, UniProt P36507); assay: biochemical
Chain of MAP2K2 (P36507 whole entry): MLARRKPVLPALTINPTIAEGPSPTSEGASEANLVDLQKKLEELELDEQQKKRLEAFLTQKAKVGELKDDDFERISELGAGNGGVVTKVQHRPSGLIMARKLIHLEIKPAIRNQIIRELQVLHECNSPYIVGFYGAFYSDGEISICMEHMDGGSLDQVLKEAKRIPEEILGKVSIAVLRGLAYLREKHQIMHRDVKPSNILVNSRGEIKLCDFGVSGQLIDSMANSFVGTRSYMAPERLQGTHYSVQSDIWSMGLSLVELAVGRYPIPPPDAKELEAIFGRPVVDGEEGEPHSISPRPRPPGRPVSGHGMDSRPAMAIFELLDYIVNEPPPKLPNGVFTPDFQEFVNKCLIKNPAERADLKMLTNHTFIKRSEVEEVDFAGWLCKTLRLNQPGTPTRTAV
Experimental: as §1, §2, §3

MAP2K1 = MAP2K1 (Homo sapiens, UniProt Q02750); assay: biochemical
Chain of MAP2K1 (Q02750 whole entry): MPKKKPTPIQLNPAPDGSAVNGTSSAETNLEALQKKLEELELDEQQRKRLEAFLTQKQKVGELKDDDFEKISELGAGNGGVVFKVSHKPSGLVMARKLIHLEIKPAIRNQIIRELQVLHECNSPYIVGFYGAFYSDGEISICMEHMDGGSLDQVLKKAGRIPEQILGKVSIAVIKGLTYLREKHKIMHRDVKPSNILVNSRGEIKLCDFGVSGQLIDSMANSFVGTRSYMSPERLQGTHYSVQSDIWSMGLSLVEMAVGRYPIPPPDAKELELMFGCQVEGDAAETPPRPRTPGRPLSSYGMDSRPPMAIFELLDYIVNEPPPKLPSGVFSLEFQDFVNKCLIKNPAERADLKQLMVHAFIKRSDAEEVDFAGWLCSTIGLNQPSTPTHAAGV
Experimental: as §1, §2, §3

[7] = Sos et al. 2009, read-out: GI50 literature

For `Cc1nc(Nc2ncc(C(=O)Nc3c(C)cccc3Cl)s2)cc(N2CCN(CCO)CC2)n1` [dasatinib, N-(2-chloro-6-methylphenyl)-2-[[6-[4-(2-hydroxyethyl)piperazin-1-yl]-2-methylpyrimidin-4-yl]amino]-1,3-thiazole-5-carboxamide], the GI50 (PC9 NSCLC cell line; [7]) is listed as 460 nM, the IC50 (PC9 NSCLC cell line; read-out: Class) is listed as < 1000 nM and the GI50 (LouNH91 NSCLC cell line; [7]) is listed as 113 nM. For the same compound, the IC50 (LouNH91 NSCLC cell line; read-out: Class) was < 1000 nM, the GI50 (HOP62 NSCLC cell line [1]) was 14 nM and the GI50 [2] was 3.27 µM. For the same compound, the GI50 [3] was 36 nM, the GI50 (H157 NSCLC cell line; [7]) was 10.5 µM and the Sensitivity class (H157 NSCLC cell line) was > 1000 nM. The GI50 (HCC366 NSCLC cell line; [7]) was 482 nM, the IC50 (HCC366 NSCLC cell line; read-out: Class) was < 1000 nM and the GI50 (H322 NSCLC cell line; [7]) was 259 nM. For the same compound, the IC50 (H322 NSCLC cell line; read-out: Class) was < 1000 nM, the GI50 (H2030 NSCLC cell line; [7]) was 118 nM and the Sensitivity class (H2030 NSCLC cell line) was < 1000 nM. The GI50 (LCLC103H NSCLC cell line [4]; [7]) was 13.9 µM, the IC50 (LCLC103H NSCLC cell line [4]; read-out: Class) was > 1000 nM and the GI50 (H1568 NSCLC cell line) was 5.44 µM. For the same compound, the metabolic responses (advanced NSCLC) was “eleven”, the partial response (advanced NSCLC) was “one” and the GI50 (H1666 NSCLC cell line; [7]) was 175 nM. The Sensitivity class (H1666 NSCLC cell line) was < 1000 nM, the GI50 (HCC1359 NSCLC cell line) was 520 nM and the GI50 (H322M NSCLC cell line; [7]) was 81.9 nM. For the same compound, the IC50 (H322M NSCLC cell line; read-out: Class) was < 1000 nM, the GI50 (H647 NSCLC cell line; [7]) was 12.4 µM and the IC50 (H647 NSCLC cell line; read-out: Class) was > 1000 nM. For the same compound, the GI50 (HOP62 NSCLC cell line [5]; [7]) was 12.8 µM, the IC50 (HOP62 NSCLC cell line [5]; read-out: Class) was > 1000 nM and the GI50 (HCC4006 NSCLC cell line; [7]) was 838 nM. The IC50 (HCC4006 NSCLC cell line; read-out: Class) was < 1000 nM and the GI50 (LCLC103H NSCLC cell line [6]) was 80 nM.
`CN1CCN(CCOc2cc(OC3CCOCC3)c3c(Nc4c(Cl)ccc5c4OCO5)ncnc3c2)CC1` [saracatinib, N-(5-Chloro-1,3-benzodioxol-4-yl)-7-[2-(4-methyl-1-piperazinyl)ethoxy]-5-[(tetrahydro-2H-pyran-4-yl)oxy]-4-quinazolinamine] gave a Kd (MET) of 6.66 µM, a Kd (MAP2K2) of 2310 nM and a Kd (MAP2K1) of 1230 nM.

Reference: US9328386B2, “Markers for susceptibility to an inhibitor of an Src-family kinase” (Evotec (München) GmbH, priority 2011, dated 2016)
